In PubChem BioAssay (NCI):
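Growth conditions: 96-well plates. Treatment: test compound, 48 hours, 5 concentrations. Analysis: linear interpolation between bracketing concentrations; unreached endpoints set to highest concentration. GI50 = concentration required for 50% inhibition of growth. TGI: concentration producing complete growth inhibition.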 Where a SMILES comes first, the peptide text is derived from it. [ ]: non-standard residue; d: D form. The star is where a group is joined. ξ: configuration not given here. X16 = COC1=CC(=O)N(C(=O)C(O*)C(C)C)C1Cc1ccccc1; ξNMe2Val = CC(C)C(C(=O)*)N(C)C; NMeV = CN[CH](C(=O)O)C(C)C

Columns and labels:
Test in all cases: growth of human tumour cells (NCI), 48 h
[1] = test system: ACHN renal
[2] = test system: CAKI-1 renal
[3] = test system: HS 578T breast
[4] = test system: MDA-MB-231 breast
[5] = test system: MDA-MB-435
[6] = test system: MOLT-4 leukemia
[7] = test system: NCI/ADR-RES ovarian
[8] = test system: RPMI-8226 leukemia
[9] = test system: T-47D breast
[10] = test system: TK-10 renal

| Compound | TGI [1] [µM] | TGI [2] [µM] | TGI [3] [µM] | TGI [4] [µM] | TGI [5] [µM] | TGI [6] [µM] | TGI [7] [µM] | TGI [8] [µM] | TGI [9] [µM] | TGI [10] [µM] | GI50 [2] [µM] | GI50 [6] [µM] | GI50 [8] [µM] | GI50 [1] [µM] | GI50 [3] [µM] | GI50 [4] [µM] | GI50 [7] [µM] | GI50 [9] [µM] | GI50 [10] [µM] | GI50 [5] [µM] |
| --- | --- | --- | --- | --- | --- | --- | --- | --- | --- | --- | --- | --- | --- | --- | --- | --- | --- | --- | --- | --- |
| COc1ccc2c(O)c3[n+](cc2c1OC)CCc1cc2c(cc1-3)OCO2 | > 100 | > 100 | > 100 | > 100 | 69.3 | > 100 | > 100 | > 100 | > 100 | > 100 |  |  |  |  |  |  |  |  |  |  |
| COc1ccc(C(=O)C2CC3(CCC2(O)c2ccc(OC)cc2)CC(=O)Nc2ccccc2C3=O)cc1 (stereo not given) |  | > 100 | > 100 | > 100 | > 100 |  | > 100 |  | > 100 | > 100 |  |  |  |  |  |  |  |  |  |  |
| OCC(O)COc1ccc(Br)cc1 (stereo not given) | > 100 | > 100 |  |  |  |  |  | > 100 |  | > 100 |  |  |  |  |  |  |  |  |  |  |
| Nc1cc2c(cc1[N+](=O)[O-])[nH]c1c(-c3ccccc3)nccc12 |  |  |  |  |  | 19.8 | 41.4 | > 100 |  |  |  |  |  |  |  |  |  |  |  |  |
| COC1=CC(=O)N(C(=O)C(OC(=O)C2CCCN2C(=O)C2CCCN2C(=O)C(C(C)C)N(C)C(=O)C(NC(=O)C(C(C)C)N(C)C)C(C)C)C(C)C)C1Cc1ccccc1 (stereo not given) (ξNMe2Val-V[NMeV]PP-X16; configuration not given here) |  | > 4 | 0.000903 |  | 0.000576 |  | 0.256 | > 4 |  |  | < 0.0004 | < 0.0004 | < 0.0004 |  |  |  |  |  |  |  |
| Cc1ccc(N=Nc2c(O)c3ccccc3[nH]c2=O)c(S(=O)(=O)N(C)C)c1 | > 100 | > 100 | > 100 | > 100 | > 100 |  | > 100 | > 100 | > 100 | > 100 |  |  |  |  |  |  |  |  |  |  |
| Cc1ccc(OP2(=O)Oc3ccc4ccccc4c3CN2c2ccc(Cl)cc2)cc1C (stereo not given) |  | > 100 |  |  |  | > 100 | > 100 | > 100 |  |  |  |  |  |  |  |  |  |  |  |  |
| O=C(NCc1cn(Cc2cccc(Oc3ccccc3)c2)nn1)c1cccnc1Nc1ccccc1 | > 100 | > 100 | > 100 | 5.97 |  | > 100 | > 100 | > 100 | 63.2 | 28.4 | 5.45 | 3.74 | 3.61 | 5.67 | 3.68 | 2.25 | 2.47 | 5.4 | 4.3 |  |
| CCOc1ncn(-c2ccc(NC(=S)Nc3cccc(O)c3)cc2)n1 |  |  |  | > 100 | > 100 | > 100 |  | > 100 | > 100 | > 100 |  |  |  |  |  |  |  |  |  |  |
| COC[C@H]1C(=O)NCC(=O)N2NCCC[C@H]2C(=O)N(O)[C@H](C)C(=O)O[C@@H](C(C)C)[C@H](NC(=O)[C@](C)(O)[C@]2(O)CC[C@@H](CC(C)C)[C@H](C)O2)C(=O)N2NCCC[C@@H]2C(=O)N1O | 0.0307 |  | 0.0244 | 0.0432 | 0.0128 | 0.0464 |  |  | 0.0332 | 0.0322 |  | < 0.01 |  | 0.0168 | < 0.01 | < 0.0111 |  | 0.0149 | 0.0181 | < 0.01 |
| CO/C(=N\N=C(/C)C(F)(F)F)c1ccncc1 |  | > 100 | > 100 | > 100 | > 100 | > 100 | > 100 | > 100 | > 100 |  |  |  |  |  |  |  |  |  |  |  |
| CC1(C)CCc2c(cc3c(c2O)CCC(C)(C)O3)O1 | > 100 | > 100 | > 100 | > 100 |  | > 100 | > 100 |  | > 100 | > 100 |  |  |  |  |  |  |  |  |  |  |
| C=C1CC2CC[C@@]34C[C@@H]5O[C@@H]6C(O[C@H]7CC[C@H](CC(=O)OC8[C@@H](C)C9OC%10C[C@]%11(C[C@@H]%12O[C@@]%13(C[C@@H](C)[C@@H]%12O%11)C[C@H](C)[C@@H]%11OC%12CC(C(O)CO)OC%12C[C@@H]%11O%13)OC%10CC9O[C@H]8C[C@H]8O[C@@H](CC[C@@H]1O2)C[C@@H](C)C8=C)O[C@@H]7[C@@H]6O3)C5O4 (stereo not given in full) |  | > 1.48 |  |  |  | 0.104 | 0.0304 | > 1.48 |  |  | < 0.000148 | < 0.000148 | < 0.000148 |  |  |  |  |  |  |  |
| C=C/C(C)=C/[C@H](C)C(=O)C[C@H](O)CC1CC(=O)NC(=O)C1 |  | > 100 |  |  |  | > 100 | > 100 | > 100 |  |  |  |  |  |  |  |  |  |  |  |  |
